Test results from US10925876B2, “Methods for using triazolo-pyrazinyl soluble guanylate cyclase activators in fibrotic disorders” (Merck Sharp & Dohme Corp., priority 2016, dated 2021).

Columns and labels:
[1] = tested on: Spontaneously hypertensive rats (SHR); test: Acute Efficacy in Spontaneously Hypertensive Rats (SHR), telemetry blood pressure; assay type: in vivo, rat; details: single oral gavage
From the text: Spontaneously hypertensive rats (SHR, male, Charles River) were implanted with DSI TA11PA-C40 telemetry device (Data Sciences, Inc., St. Paul, Minn.) under isoflurane or ketamine/metomidine anesthesia. The telemetry unit catheter was inserted into the descending aorta via the femoral artery and the telemetry device was implanted subcutaneously in the left flank area. Animals were allowed to recover from surgery for 14 days before the start of any studies. Blood pressure, heart rate, and activity signals from conscious, freely moving rats were recorded continuously for 30 seconds every 10 minutes. On the day prior to administration of compound, a single oral dose of vehicle (10% transcutol/20% Cremophor/70% water) was administered to all animals to establish baseline control data. The blood pressure lowering efficacy of compound (PO) or vehicle was evaluated following a single oral gavage. Data were collected as hourly averages, and changes in blood pressure were calculated by subtracting control baseline data on an hourly basis. Animals were maintained on normal diet with a 12 hour light-dark cycle.
Maximum peak decreases of systolic blood pressure (SBP) in SHR at a particular P.O. dose (mpk milligrams per kilogram) for the following representative compounds are provided. Category A=SBP in SHRs <20 mmHg; Category B=SBP in SHRs 20-40 mmHg; Category C=SBP in SHRs >40 mmHg.

sGC α1/β1 heterodimer = molecular target: T1, sGC α1/β1 heterodimer (Homo sapiens, UniProt Q02108+Q02153); test: Cell-Based sGC Functional Assay (CASA Assay), cGMP generation in CHO-K1/sGC cells;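 note: reference Compound A is a published heme-dependent sGC activator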; details: maximum cGMP production of Compound A set to 100% activation, read-out: % Act. (percent activation relative to Compound A)
T1 construct: expressed in transfected cells
T1 sequence (Q02108 1-690): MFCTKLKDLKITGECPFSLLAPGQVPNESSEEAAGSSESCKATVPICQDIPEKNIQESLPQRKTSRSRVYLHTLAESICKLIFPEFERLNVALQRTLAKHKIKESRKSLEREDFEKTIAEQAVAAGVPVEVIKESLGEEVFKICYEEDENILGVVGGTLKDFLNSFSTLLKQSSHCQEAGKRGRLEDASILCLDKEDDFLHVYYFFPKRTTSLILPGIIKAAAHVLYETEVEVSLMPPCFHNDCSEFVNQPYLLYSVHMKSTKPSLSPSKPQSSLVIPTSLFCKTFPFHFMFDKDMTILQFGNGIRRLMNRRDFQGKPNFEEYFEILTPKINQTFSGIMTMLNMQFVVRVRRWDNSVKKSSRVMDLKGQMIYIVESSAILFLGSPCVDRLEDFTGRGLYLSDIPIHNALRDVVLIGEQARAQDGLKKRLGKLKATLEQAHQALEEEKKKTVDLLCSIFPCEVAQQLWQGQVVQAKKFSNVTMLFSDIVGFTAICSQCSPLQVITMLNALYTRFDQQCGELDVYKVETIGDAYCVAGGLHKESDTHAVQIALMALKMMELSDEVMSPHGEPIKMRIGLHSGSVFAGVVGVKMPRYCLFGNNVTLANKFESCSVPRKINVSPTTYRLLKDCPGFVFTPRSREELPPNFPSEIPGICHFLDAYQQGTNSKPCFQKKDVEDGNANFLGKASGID
T1 sequence (Q02153 1-619): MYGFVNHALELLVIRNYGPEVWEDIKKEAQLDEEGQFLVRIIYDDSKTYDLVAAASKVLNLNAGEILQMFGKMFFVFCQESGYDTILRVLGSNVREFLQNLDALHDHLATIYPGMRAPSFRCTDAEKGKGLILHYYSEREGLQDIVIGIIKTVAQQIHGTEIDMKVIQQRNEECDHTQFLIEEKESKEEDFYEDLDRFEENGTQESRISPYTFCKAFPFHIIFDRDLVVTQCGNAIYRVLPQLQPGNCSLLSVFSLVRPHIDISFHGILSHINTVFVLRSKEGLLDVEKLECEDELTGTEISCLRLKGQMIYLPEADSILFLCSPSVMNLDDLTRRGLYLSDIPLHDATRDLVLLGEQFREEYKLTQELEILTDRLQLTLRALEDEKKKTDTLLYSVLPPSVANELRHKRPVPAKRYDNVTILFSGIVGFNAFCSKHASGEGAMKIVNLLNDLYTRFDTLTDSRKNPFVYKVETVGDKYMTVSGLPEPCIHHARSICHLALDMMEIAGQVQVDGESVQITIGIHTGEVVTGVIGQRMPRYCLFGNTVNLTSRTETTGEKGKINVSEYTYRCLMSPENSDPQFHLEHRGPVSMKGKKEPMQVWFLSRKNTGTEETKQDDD
Procedure, shortened: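 CHO-K1 cells stably expressing human sGC α1/β1, 4×10^5/mL in EBSS with 5 mM MgCl2, 10 mM HEPES, 0.05% BSA, 0.5 mM IBMX, 2.5% DMSO; compounds 1 h at 37 °C ± 1 μM DETA-NO. cGMP by HTRF, expressed as % of reference Compound A maximum; IP and max fold induction from 4P fit.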

Row | Emax (sGC α1/β1 heterodimer) | SMILES | Maximum peak decrease of systolic blood pressure (SBP) in SHR, Cat. ([1]; P.O. 0.3 mpk) | Maximum peak decrease of systolic blood pressure (SBP) in SHR, Cat. ([1]; P.O. 3 mpk) | Maximum peak decrease of systolic blood pressure (SBP) in SHR, Cat. ([1]; P.O. 1 mpk)
1 | 151% | Nc1nc(-c2cn3ncnc3c(CCCC(F)(F)F)n2)nc2c1C(c1ncc(Cl)cn1)(C1CC1)C(=O)N2 (stereo not drawn) [Example 41A, 4-amino-5-(5-chloropyrimidin-2-yl)-5-cyclopropyl-2-(8-(4,4,4-trifluorobutyl)-[1,2,4]triazolo[1,5-a]pyrazin-6-yl)-5H-pyrrolo[2,3-d]pyrimidin-6(7H)-one] | B (Category B=SBP in SHRs 20-40 mmHg) | – | –
2 | 81% | CCCc1nc(-c2nc(N)c3c(n2)NC(=O)C3(c2ccc(C(F)(F)F)cn2)C2CC2)cn2ncnc12 (stereo not drawn) [Example 56A, 4-amino-5-cyclopropyl-2-(8-propyl-[1,2,4]triazolo[1,5-a]pyrazin-6-yl)-5-(5-(trifluoromethyl)pyridin-2-yl)-5H-pyrrolo[2,3-d]pyrimidin-6(7H)-one] | – | B (Category B=SBP in SHRs 20-40 mmHg) | –
3 | 121% | CCCCc1nc(-c2nc(N)c3c(n2)NC(=O)[C@@]3(C)c2ccc(F)cc2)cn2ncnc12 [Example 60A, (S)-4-amino-2-(8-butyl-[1,2,4]triazolo[1,5-a]pyrazin-6-yl)-5-(4-fluorophenyl)-5-methyl-5,7-dihydro-6H-pyrrolo[2,3-d]pyrimidin-6-one] | C (Category C=SBP in SHRs >40 mmHg) | – | –
4 | 177% | CCCCc1nc(-c2nc(N)c3c(n2)NC(=O)C3(C)c2ccc(F)cn2)cn2ncnc12 (stereo not drawn) [Example 61B, 4-amino-2-(8-butyl-[1,2,4]triazolo[1,5-a]pyrazin-6-yl)-5-(5-fluoropyridin-2-yl)-5-methyl-5H-pyrrolo[2,3-d]pyrimidin-6(7H)-one] | C (Category C=SBP in SHRs >40 mmHg) | – | –
5 | 104% | CCCCc1nc(-c2nc(N)c3c(n2)NC(=O)C3(c2ccc(F)c(F)c2)C2CC2)cn2ncnc12 (stereo not drawn) [Example 65A, 4-amino-2-(8-butyl-[1,2,4]triazolo[1,5-a]pyrazin-6-yl)-5-cyclopropyl-5-(3,4-difluorophenyl)-5H-pyrrolo[2,3-d]pyrimidin-6(7H)-one] | C (Category C=SBP in SHRs >40 mmHg) | – | –
6 | 119% | CCCCc1nc(-c2nc(N)c3c(n2)NC(=O)C3(C)c2ccc(C(F)(F)F)cn2)cn2ncnc12 (stereo not drawn) [Example 67B, 4-amino-2-(8-butyl-[1,2,4]triazolo[1,5-a]pyrazin-6-yl)-5-methyl-5-(5-(trifluoromethyl)pyridin-2-yl)-5H-pyrrolo[2,3-d]pyrimidin-6(7H)-one] | B (Category B=SBP in SHRs 20-40 mmHg) | – | –
7 | 101% | CC(C)Cc1nc(-c2nc(N)c3c(n2)NC(=O)[C@@]3(C)c2ccc(F)cc2)cn2ncnc12 [Example 73A, (S)-4-amino-5-(4-fluorophenyl)-2-(8-isobutyl-[1,2,4]triazolo[1,5-a]pyrazin-6-yl)-5-methyl-5,7-dihydro-6H-pyrrolo[2,3-d]pyrimidin-6-one] | – | – | B (Category B=SBP in SHRs 20-40 mmHg)
8 | 110% | C[C@@]1(c2ccc(F)cc2)C(=O)Nc2nc(-c3cn4ncnc4c(CCC(F)(F)F)n3)nc(N)c21 [Example 74A, (S)-4-amino-5-(4-fluorophenyl)-5-methyl-2-(8-(3,3,3-trifluoropropyl)-[1,2,4]triazolo[1,5-a]pyrazin-6-yl)-5,7-dihydro-6H-pyrrolo[2,3-d]pyrimidin-6-one] | – | – | B (Category B=SBP in SHRs 20-40 mmHg)
9 | 120% | CC1(c2ccc(Cl)cc2)C(=O)Nc2nc(-c3cn4ncnc4c(CCC(F)(F)F)n3)nc(N)c21 (stereo not drawn) [Example 76A, 4-amino-5-(4-chlorophenyl)-5-methyl-2-(8-(3,3,3-trifluoropropyl)-[1,2,4]triazolo[1,5-a]pyrazin-6-yl)-5H-pyrrolo[2,3-d]pyrimidin-6(7H)-one] | A (Category A=SBP in SHRs <20 mmHg) | – | –
10 | 112% | CC1(c2ccc(C(F)(F)F)cc2)C(=O)Nc2nc(-c3cn4ncnc4c(CCC(F)(F)F)n3)nc(N)c21 (stereo not drawn) [Example 77B, 4-amino-5-methyl-5-(4-(trifluoromethyl)phenyl)-2-(8-(3,3,3-trifluoropropyl)-[1,2,4]triazolo[1,5-a]pyrazin-6-yl)-5H-pyrrolo[2,3-d]pyrimidin-6(7H)-one] | – | – | A (Category A=SBP in SHRs <20 mmHg)
11 | 83% | CC1(c2ccc(C(F)(F)F)cn2)C(=O)Nc2nc(-c3cn4ncnc4c(CCC(F)(F)F)n3)nc(N)c21 (stereo not drawn) [Example 78B, 4-amino-5-methyl-5-(5-(trifluoromethyl)pyridin-2-yl)-2-(8-(3,3,3-trifluoropropyl)-[1,2,4]triazolo[1,5-a]pyrazin-6-yl)-5H-pyrrolo[2,3-d]pyrimidin-6(7H)-one] | – | B (Category B=SBP in SHRs 20-40 mmHg) | –
12 | 152% | CC1(c2ccc(Cl)cn2)C(=O)Nc2nc(-c3cn4ncnc4c(CCC(F)(F)F)n3)nc(N)c21 (stereo not drawn) [Example 79A, 4-amino-5-(5-chloropyridin-2-yl)-5-methyl-2-(8-(3,3,3-trifluoropropyl)-[1,2,4]triazolo[1,5-a]pyrazin-6-yl)-5H-pyrrolo[2,3-d]pyrimidin-6(7H)-one] | – | – | B (Category B=SBP in SHRs 20-40 mmHg)
13 | 106% | C[C@@]1(c2ccc(F)cc2)C(=O)Nc2nc(-c3cn4ncnc4c(Cc4ccc(F)cc4)n3)nc(N)c21 [Example 85B, (S)-4-amino-2-(8-(4-fluorobenzyl)-[1,2,4]triazolo[1,5-a]pyrazin-6-yl)-5-(4-fluorophenyl)-5-methyl-5H-pyrrolo[2,3-d]pyrimidin-6(7H)-one] | C (Category C=SBP in SHRs >40 mmHg) | – | –
14 | 137% | Cc1nc2c(CCC(F)(F)C(F)(F)F)nc(-c3nc(N)c4c(n3)NC(=O)[C@@]4(C)c3ccc(F)cc3)cn2n1 [Example 88B, (S)-4-amino-5-(4-fluorophenyl)-5-methyl-2-(2-methyl-8-(3,3,4,4,4-pentafluorobutyl)-[1,2,4]triazolo[1,5-a]pyrazin-6-yl)-5H-pyrrolo[2,3-d)pyrimidin-6(7H)-one] | – | – | C (Category C=SBP in SHRs >40 mmHg)
15 | 138% | CC1(c2ccc(Cl)cc2)C(=O)Nc2nc(-c3cn4ncnc4cn3)nc(N)c21 (stereo not drawn) [Example 94A, 2-([1,2,4]triazolo[1,5-a]pyrazin-6-yl)-4-amino-5-(4-chlorophenyl)-5-methyl-5H-pyrrolo[2,3-d]pyrimidin-6(7H)-one] | – | – | C (Category C=SBP in SHRs >40 mmHg)
